In PubChem BioAssay (NCI):
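96-well plates; 48 h exposure; 5 concentrations. Endpoints by linear interpolation between flanking doses. Not reached: highest tested concentration assigned. TGI marks complete inhibition of growth.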

Tests used:
Experiment in all cases: NCI-60 cell line screen, 48 h
HS 578T breast = test system: HS 578T breast
MDA-MB-435 = test system: MDA-MB-435
SF-268 CNS = test system: SF-268 CNS
SW-620 colon = test system: SW-620 colon
SK-MEL-28 melanoma = test system: SK-MEL-28 melanoma
HCT-116 colon = test system: HCT-116 colon
NCI/ADR-RES ovarian = test system: NCI/ADR-RES ovarian
MDA-MB-231 breast = test system: MDA-MB-231 breast
LOX IMVI melanoma = test system: LOX IMVI melanoma
SN12C renal = test system: SN12C renal
OVCAR-4 ovarian = test system: OVCAR-4 ovarian
EKVX NSCLC = test system: EKVX NSCLC
CCRF-CEM leukemia = test system: CCRF-CEM leukemia
HOP-62 NSCLC = test system: HOP-62 NSCLC
786-0 renal = test system: 786-0 renal
NCI-H23 lung = test system: NCI-H23 lung
BT-549 breast = test system: BT-549 breast
OVCAR-5 ovarian = test system: OVCAR-5 ovarian
KM12 colon = test system: KM12 colon
MDA-N = test system: MDA-N
SR leukemia = test system: SR leukemia
OVCAR-8 ovarian = test system: OVCAR-8 ovarian
SNB-75 CNS = test system: SNB-75 CNS
HCT-15 colon = test system: HCT-15 colon
OVCAR-3 ovarian = test system: OVCAR-3 ovarian
SF-295 CNS = test system: SF-295 CNS
DU-145 prostate = test system: DU-145 prostate
COLO 205 colon = test system: COLO 205 colon
RPMI-8226 leukemia = test system: RPMI-8226 leukemia
HT29 colon = test system: HT29 colon
UO-31 renal = test system: UO-31 renal
A498 renal = test system: A498 renal
M14 melanoma = test system: M14 melanoma
SF-539 CNS = test system: SF-539 CNS
SNB-19 CNS = test system: SNB-19 CNS
MALME-3M melanoma = test system: MALME-3M melanoma
RXF 393 renal = test system: RXF 393 renal
HOP-92 NSCLC = test system: HOP-92 NSCLC
NCI-H460 lung = test system: NCI-H460 lung
ACHN renal = test system: ACHN renal
SK-MEL-2 melanoma = test system: SK-MEL-2 melanoma
UACC-62 melanoma = test system: UACC-62 melanoma
T-47D breast = test system: T-47D breast
NCI-H522 lung = test system: NCI-H522 lung
MOLT-4 leukemia = test system: MOLT-4 leukemia
K-562 leukemia = test system: K-562 leukemia
NCI-H226 lung = test system: NCI-H226 lung
MCF7 breast = test system: MCF7 breast
SK-MEL-5 melanoma = test system: SK-MEL-5 melanoma
CAKI-1 renal = test system: CAKI-1 renal
A549 NSCLC = test system: A549 NSCLC
PC-3 prostate = test system: PC-3 prostate
U251 CNS = test system: U251 CNS
SK-OV-3 ovarian = test system: SK-OV-3 ovarian
HL-60(TB) leukemia = test system: HL-60(TB) leukemia
TK-10 renal = test system: TK-10 renal
IGROV1 ovarian = test system: IGROV1 ovarian

Cc1cc2nc3[nH]c4c(Cl)cc(Cl)cc4c3nc2cc1C
TGI (HS 578T breast): > 100 µM
TGI (MDA-MB-435): > 100 µM
TGI (SF-268 CNS): > 100 µM
TGI (SW-620 colon): > 100 µM
TGI (SK-MEL-28 melanoma): > 100 µM
TGI (HCT-116 colon): > 100 µM
TGI (NCI/ADR-RES ovarian): > 100 µM
TGI (MDA-MB-231 breast): > 100 µM
TGI (LOX IMVI melanoma): > 100 µM
TGI (SN12C renal): > 100 µM
TGI (OVCAR-4 ovarian): > 100 µM
TGI (EKVX NSCLC): > 100 µM
TGI (CCRF-CEM leukemia): > 100 µM
TGI (HOP-62 NSCLC): > 100 µM
TGI (786-0 renal): > 100 µM
TGI (NCI-H23 lung): > 100 µM
TGI (BT-549 breast): > 100 µM
TGI (OVCAR-5 ovarian): > 100 µM
TGI (KM12 colon): > 100 µM
TGI (MDA-N): > 100 µM
TGI (SR leukemia): > 100 µM
TGI (OVCAR-8 ovarian): > 100 µM
TGI (SNB-75 CNS): 42 µM
TGI (HCT-15 colon): > 100 µM
TGI (OVCAR-3 ovarian): > 100 µM
TGI (SF-295 CNS): > 100 µM
TGI (DU-145 prostate): > 100 µM
TGI (COLO 205 colon): > 100 µM
TGI (RPMI-8226 leukemia): > 100 µM
TGI (HT29 colon): > 100 µM
TGI (UO-31 renal): > 100 µM
TGI (A498 renal): > 100 µM
TGI (M14 melanoma): > 100 µM
TGI (SF-539 CNS): > 100 µM
TGI (SNB-19 CNS): > 100 µM
TGI (MALME-3M melanoma): > 100 µM
TGI (RXF 393 renal): > 100 µM
TGI (HOP-92 NSCLC): > 100 µM
TGI (NCI-H460 lung): > 100 µM
TGI (ACHN renal): > 100 µM
TGI (SK-MEL-2 melanoma): > 100 µM
TGI (UACC-62 melanoma): > 100 µM
TGI (T-47D breast): > 100 µM
TGI (NCI-H522 lung): > 100 µM
TGI (MOLT-4 leukemia): > 100 µM
TGI (K-562 leukemia): > 100 µM
TGI (NCI-H226 lung): > 100 µM
TGI (MCF7 breast): > 100 µM
TGI (SK-MEL-5 melanoma): > 100 µM
TGI (CAKI-1 renal): > 100 µM
TGI (A549 NSCLC): > 100 µM
TGI (PC-3 prostate): > 100 µM
TGI (U251 CNS): > 100 µM
TGI (SK-OV-3 ovarian): > 100 µM
TGI (HL-60(TB) leukemia): > 100 µM
TGI (TK-10 renal): 56.4 µM
TGI (IGROV1 ovarian): > 100 µM
